Assay type in all cases: biochemical
The target of one assay is PIM-1 kinase (Homo sapiens, UniProt P11309). The assay can be described thus: HTRF KinEASE kinase assay, PIM-1 inhibitory activity. From the text:
Inhibitory activities against PIM-1, TRKA, TRKB, FLT3, PKCδ, PKCε, PKCη, PAK4, PLK1, ROCK2, and IKKβ kinases were all determined using an HTRF®KinEASE™ kinase assay kit based on a time-resolved fluorescence technology. 7-carbonylstaurosporine (7OSTA) and TP-3654 were used as positive controls, and 3 duplicate wells were set in parallel. Specific operation steps are as follows. • (1) A kinase buffer was formulated and then used to formulate compounds to be tested, a positive drug, a substrate, kinases, and adenosine triphosphate (ATP). • (2) 2 μL of the substrate, 2 μL of the kinases (the kinases were not added in a negative control group), 4 μL of the compounds to be tested or the positive drug (4 μL of a buffer was added in a positive control group, and 6 μL of a buffer was added in the negative control group), and 2 μL of the ATP were sequentially added into each well of a 384-well microplate, and the microplate was sealed with a membrane and then centrifuged for uniform mixing. • (3) According to different types of the kinases, incubation was performed in an incubator at 37° C. for a specific time. • (4) A detection solution was formulated using XL-665, an antibody, and a detection buffer, 10 µL of the detection solution was added into each well, the microplate was sealed with a membrane and then centrifuged for uniform mixing, and standing was performed at room temperature for 1 hour. • (5) Fluorescence value intensities F1 and F2 at wavelengths of 620 nm and 665 nm were measured using a multifunctional microplate tester, respectively. A signal ratio was calculated as F2/F1×10000, and then an IC50 value was calculated using Graphpad Prism 8 software.
On the technique in general: Time-resolved FRET reads energy transfer from a long-lived donor to a nearby acceptor.

The next assay has as its target TRKA (Homo sapiens, UniProt P04629). The assay can be described thus: HTRF KinEASE kinase assay, TRKA (kinase selectivity). The procedure: (§1) Inhibitory activities against PIM-1, TRKA, TRKB, FLT3, PKCδ, PKCε, PKCη, PAK4, PLK1, ROCK2, and IKKβ kinases were all determined using an HTRF®KinEASE™ kinase assay kit based on a time-resolved fluorescence technology. 7-carbonylstaurosporine (7OSTA) and TP-3654 were used as positive controls, and 3 duplicate wells were set in parallel. […] A signal ratio was calculated as F2/F1×10000, and then an IC50 value was calculated using Graphpad Prism 8 software.

A further assay has as its target T1, FLT3 (Homo sapiens, UniProt P36888).
T1 sequence (P36888 27-993): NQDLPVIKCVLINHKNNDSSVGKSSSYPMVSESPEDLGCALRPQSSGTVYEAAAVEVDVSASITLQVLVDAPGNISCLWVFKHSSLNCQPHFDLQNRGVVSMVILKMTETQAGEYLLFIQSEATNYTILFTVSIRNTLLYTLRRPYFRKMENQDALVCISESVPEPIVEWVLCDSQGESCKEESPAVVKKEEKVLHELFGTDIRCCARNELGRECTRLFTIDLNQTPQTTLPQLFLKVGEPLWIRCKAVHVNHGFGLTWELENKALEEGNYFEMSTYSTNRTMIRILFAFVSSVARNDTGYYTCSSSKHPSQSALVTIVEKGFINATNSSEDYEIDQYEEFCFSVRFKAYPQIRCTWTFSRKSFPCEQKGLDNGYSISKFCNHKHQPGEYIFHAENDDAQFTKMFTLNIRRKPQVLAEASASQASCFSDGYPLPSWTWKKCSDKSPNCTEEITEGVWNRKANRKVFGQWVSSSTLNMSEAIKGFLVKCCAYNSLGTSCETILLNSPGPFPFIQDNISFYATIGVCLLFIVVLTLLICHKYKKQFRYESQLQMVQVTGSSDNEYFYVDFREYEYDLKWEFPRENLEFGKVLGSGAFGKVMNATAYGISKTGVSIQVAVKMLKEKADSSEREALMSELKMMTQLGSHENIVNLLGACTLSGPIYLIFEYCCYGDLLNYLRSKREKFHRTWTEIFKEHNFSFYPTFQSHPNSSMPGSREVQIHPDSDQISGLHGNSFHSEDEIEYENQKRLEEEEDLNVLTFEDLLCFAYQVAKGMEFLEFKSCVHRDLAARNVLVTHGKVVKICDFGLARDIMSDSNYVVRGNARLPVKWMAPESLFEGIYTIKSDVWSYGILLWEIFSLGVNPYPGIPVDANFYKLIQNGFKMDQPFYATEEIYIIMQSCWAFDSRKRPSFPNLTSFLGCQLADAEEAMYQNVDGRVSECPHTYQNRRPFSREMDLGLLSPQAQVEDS
The assay can be described thus: HTRF KinEASE kinase assay, FLT3 (kinase selectivity). The procedure:
as §1

The target in another assay is PKCδ (Homo sapiens, UniProt Q05655). The assay can be described thus: HTRF KinEASE kinase assay, PKCδ (kinase selectivity). The procedure:
as §1

Another assay concerns the target TRKB (Homo sapiens, UniProt Q16620). The assay can be described thus: HTRF KinEASE kinase assay, TRKB (kinase selectivity). On the procedure: as §1
The target in a further assay is T2, PKCε (Homo sapiens, UniProt Q02156).
T2 sequence (Q02156 1-737): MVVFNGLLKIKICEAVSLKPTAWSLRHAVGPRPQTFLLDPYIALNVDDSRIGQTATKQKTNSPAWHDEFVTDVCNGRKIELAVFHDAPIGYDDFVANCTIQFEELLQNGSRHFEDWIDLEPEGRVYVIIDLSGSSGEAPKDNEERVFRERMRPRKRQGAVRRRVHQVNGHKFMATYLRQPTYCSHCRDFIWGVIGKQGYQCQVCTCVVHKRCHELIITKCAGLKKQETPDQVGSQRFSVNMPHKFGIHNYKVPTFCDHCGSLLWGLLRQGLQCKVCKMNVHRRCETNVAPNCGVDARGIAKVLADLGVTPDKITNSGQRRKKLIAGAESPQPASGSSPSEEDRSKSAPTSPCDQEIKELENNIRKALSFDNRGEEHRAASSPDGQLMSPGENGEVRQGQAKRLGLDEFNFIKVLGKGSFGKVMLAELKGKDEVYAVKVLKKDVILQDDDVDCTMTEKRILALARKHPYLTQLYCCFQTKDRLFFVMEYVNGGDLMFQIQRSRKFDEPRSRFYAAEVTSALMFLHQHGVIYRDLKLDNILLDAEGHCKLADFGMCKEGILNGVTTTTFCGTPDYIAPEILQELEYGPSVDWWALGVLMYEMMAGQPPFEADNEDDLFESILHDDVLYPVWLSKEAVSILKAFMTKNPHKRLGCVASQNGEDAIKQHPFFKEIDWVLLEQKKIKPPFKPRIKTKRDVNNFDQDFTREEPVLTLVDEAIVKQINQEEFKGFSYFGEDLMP
The assay can be described thus: HTRF KinEASE kinase assay, PKCε (kinase selectivity). On the procedure: as §1

The target of a further assay is PKCη (Homo sapiens, UniProt P24723). The assay can be described thus: HTRF KinEASE kinase assay, PKCη (kinase selectivity). The procedure: as §1
Chain of PKCη (P24723 whole entry): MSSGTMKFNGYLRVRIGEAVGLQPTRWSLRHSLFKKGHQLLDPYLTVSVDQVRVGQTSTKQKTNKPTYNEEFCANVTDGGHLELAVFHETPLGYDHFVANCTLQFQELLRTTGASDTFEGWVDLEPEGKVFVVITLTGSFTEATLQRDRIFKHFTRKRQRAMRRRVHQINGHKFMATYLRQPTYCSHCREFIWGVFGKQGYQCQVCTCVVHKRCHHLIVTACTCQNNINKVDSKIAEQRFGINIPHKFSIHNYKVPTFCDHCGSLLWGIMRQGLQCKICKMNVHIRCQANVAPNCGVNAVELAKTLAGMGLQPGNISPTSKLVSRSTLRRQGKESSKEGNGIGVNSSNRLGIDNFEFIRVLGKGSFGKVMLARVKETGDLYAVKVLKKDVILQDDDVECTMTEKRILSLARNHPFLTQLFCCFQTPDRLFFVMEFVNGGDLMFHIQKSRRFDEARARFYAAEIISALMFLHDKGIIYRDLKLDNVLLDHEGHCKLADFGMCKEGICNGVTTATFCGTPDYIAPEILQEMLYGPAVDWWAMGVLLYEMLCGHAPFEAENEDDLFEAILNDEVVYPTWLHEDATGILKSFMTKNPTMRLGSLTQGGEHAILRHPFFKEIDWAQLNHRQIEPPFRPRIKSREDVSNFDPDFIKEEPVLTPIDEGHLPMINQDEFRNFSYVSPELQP
The target in the next assay is PAK4 (Homo sapiens, UniProt O96013). The assay can be described thus: HTRF KinEASE kinase assay, PAK4 (kinase selectivity). On the procedure:
as §1

A further assay addresses PLK1 (Homo sapiens, UniProt P53350). The assay can be described thus: HTRF KinEASE kinase assay, PLK1 (kinase selectivity). On the procedure:
as §1

The next assay has as its target ROCK2 (Homo sapiens, UniProt O75116). The assay can be described thus: HTRF KinEASE kinase assay, ROCK2 (kinase selectivity). On the procedure: as §1
The target in a further assay is T3, IKKβ (Homo sapiens, UniProt O14920).
T3 sequence (O14920 1-756): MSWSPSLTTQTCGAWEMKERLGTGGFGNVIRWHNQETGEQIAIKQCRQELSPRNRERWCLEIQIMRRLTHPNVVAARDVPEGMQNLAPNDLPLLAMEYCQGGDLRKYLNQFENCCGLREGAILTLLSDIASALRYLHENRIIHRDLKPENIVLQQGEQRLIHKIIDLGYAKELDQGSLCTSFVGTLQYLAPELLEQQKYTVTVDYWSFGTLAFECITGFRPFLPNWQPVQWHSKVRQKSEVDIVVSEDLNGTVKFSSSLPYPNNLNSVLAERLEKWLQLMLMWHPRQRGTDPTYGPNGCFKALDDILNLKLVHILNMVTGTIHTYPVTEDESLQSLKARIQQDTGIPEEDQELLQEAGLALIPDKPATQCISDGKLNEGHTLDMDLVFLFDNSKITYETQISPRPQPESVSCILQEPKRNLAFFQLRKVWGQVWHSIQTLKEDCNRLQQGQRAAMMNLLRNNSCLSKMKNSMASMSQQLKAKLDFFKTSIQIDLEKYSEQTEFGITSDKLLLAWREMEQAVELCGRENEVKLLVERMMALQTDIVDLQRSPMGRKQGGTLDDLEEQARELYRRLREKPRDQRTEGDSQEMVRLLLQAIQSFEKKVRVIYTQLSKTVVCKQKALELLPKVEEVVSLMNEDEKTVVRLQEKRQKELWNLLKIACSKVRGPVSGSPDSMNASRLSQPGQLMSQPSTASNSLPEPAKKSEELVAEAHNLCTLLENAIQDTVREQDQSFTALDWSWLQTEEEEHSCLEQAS
The assay can be described thus: HTRF KinEASE kinase assay, IKKβ (kinase selectivity). The procedure: as §1

[1] abbreviates: HTRF KinEASE kit, 3 duplicate wells, read-out: PIM-1 kinase inhibitory activity (IC50).

Each structure is given as a SMILES string. Where two headings read alike, the source gives them in different places.

Chain of PIM-1 kinase (P11309 whole entry): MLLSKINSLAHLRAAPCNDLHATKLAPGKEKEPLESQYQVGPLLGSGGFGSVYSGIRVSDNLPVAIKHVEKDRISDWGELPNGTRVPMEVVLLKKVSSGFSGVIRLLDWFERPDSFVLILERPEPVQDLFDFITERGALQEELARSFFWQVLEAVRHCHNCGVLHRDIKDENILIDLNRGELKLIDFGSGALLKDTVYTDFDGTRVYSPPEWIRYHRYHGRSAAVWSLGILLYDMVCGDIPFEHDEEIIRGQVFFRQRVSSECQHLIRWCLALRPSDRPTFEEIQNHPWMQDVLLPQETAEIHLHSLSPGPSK
Chain of TRKB (Q16620 32-822, species assumed): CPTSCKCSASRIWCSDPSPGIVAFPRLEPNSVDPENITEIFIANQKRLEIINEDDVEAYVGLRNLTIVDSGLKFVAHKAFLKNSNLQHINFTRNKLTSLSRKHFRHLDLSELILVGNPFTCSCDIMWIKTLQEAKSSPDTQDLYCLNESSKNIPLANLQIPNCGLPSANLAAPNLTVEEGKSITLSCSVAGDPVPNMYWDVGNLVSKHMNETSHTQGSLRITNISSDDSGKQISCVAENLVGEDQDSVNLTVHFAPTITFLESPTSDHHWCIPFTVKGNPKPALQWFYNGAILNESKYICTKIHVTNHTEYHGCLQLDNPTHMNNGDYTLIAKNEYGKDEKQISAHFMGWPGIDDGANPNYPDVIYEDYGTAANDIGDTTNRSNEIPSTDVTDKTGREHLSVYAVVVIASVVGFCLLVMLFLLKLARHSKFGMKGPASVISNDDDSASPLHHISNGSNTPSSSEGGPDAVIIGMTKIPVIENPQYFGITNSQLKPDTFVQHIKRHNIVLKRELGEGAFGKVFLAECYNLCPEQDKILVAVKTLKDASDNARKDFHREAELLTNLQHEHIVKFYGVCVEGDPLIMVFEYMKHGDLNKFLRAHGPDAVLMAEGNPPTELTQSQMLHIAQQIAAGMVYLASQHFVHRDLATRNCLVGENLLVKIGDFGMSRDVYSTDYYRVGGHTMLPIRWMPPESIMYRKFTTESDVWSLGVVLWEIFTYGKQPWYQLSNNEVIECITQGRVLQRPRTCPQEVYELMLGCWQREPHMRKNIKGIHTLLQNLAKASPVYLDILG
Chain of TRKA (P04629 33-796, species assumed): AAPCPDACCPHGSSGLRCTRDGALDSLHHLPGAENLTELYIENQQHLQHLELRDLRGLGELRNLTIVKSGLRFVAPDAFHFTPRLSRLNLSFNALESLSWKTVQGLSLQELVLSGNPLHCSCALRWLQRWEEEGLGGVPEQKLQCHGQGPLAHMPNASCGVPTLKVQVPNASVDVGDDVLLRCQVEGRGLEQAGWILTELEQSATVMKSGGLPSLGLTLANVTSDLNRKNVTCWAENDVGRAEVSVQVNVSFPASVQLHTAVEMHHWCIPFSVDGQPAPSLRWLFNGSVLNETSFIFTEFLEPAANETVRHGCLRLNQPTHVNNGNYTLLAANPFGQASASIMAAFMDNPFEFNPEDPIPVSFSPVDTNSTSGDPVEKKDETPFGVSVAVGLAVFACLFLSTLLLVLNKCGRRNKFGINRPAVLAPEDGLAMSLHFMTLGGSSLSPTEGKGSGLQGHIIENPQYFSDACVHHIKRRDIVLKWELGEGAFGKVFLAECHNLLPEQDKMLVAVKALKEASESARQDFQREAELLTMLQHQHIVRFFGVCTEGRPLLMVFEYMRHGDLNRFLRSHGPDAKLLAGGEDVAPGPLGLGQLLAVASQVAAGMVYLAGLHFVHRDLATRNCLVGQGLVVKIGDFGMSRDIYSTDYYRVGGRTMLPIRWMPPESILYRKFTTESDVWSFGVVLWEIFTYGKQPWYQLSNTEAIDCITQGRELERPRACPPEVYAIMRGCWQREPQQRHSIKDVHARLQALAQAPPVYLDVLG
Chain of ROCK2 (O75116 whole entry, species assumed): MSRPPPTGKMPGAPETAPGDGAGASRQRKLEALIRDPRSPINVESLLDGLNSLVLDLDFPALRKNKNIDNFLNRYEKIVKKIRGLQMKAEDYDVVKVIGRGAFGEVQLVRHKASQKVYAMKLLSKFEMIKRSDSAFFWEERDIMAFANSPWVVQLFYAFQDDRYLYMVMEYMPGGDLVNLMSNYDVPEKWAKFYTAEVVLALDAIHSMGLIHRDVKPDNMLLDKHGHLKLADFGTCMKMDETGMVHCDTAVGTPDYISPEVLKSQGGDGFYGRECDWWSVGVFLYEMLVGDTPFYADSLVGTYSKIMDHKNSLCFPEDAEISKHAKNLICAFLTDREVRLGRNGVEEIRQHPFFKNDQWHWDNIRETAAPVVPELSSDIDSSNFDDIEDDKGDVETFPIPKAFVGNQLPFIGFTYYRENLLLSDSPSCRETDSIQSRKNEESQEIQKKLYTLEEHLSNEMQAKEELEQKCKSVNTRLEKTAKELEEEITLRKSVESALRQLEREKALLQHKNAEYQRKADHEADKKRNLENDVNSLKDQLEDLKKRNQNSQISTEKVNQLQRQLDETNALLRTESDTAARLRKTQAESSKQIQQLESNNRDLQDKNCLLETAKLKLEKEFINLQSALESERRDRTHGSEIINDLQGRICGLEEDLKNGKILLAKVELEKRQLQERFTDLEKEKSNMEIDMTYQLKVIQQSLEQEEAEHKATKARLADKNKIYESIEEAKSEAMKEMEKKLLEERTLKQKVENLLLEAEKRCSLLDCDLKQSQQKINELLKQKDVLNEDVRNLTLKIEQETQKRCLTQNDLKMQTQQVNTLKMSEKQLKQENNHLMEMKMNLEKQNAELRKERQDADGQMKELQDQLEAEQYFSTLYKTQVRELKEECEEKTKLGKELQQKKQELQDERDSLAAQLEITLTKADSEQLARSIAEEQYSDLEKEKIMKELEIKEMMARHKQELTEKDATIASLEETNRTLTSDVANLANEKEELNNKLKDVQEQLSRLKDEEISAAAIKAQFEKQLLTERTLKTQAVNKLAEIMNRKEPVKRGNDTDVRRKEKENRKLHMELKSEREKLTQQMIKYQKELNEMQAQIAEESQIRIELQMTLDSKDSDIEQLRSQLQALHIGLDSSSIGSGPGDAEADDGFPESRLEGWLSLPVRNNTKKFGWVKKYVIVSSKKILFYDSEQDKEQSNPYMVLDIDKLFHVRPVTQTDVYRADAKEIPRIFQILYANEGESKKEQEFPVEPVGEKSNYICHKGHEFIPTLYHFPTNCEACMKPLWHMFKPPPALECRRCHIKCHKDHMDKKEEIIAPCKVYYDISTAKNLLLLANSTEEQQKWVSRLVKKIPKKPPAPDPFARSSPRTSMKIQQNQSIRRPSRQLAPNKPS
Chain of PAK4 (O96013 whole entry, species assumed): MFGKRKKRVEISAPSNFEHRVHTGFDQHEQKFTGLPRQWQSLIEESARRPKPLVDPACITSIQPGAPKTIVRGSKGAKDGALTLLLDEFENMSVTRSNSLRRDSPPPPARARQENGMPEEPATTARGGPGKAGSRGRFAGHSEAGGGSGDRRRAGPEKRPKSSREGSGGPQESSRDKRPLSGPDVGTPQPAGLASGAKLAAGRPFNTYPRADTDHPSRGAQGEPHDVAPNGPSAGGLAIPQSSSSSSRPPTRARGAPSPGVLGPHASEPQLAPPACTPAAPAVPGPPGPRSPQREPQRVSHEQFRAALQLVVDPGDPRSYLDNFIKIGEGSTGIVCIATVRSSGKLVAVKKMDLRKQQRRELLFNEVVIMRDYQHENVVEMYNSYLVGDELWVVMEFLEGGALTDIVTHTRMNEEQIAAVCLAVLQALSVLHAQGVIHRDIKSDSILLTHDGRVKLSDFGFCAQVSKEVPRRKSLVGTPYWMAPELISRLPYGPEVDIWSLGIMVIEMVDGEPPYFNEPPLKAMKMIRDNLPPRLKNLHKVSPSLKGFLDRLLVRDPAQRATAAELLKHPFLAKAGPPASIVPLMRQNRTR

The IC50 is the concentration that inhibits the measured activity by half. With `CC(C)(O)[C@H]1CC[C@H](Nc2ccc3ncc(-c4cccc(C(F)(F)F)c4)n3n2)CC1` [TP-3654, reference compound], the IC50 at PIM-1 kinase (setting [1]) worked out at 31.1 nM.
On the same count and under the same terms, the figure for `CCCCCCC(=O)N(C)[C@@H]1C[C@H]2O[C@@](C)([C@@H]1OC)n1c3ccccc3c3c4c(c5c6ccccc6n2c5c31)C(=O)NC4=O` [Compound 5] is above 1000 nM; for `CO[C@@H]1[C@H](N(C)C(=O)CCCCC(=O)O)C[C@H]2O[C@]1(C)n1c3ccccc3c3c4c(c5c6ccccc6n2c5c31)C(=O)NC4=O` [Compound 15] it is 61.1 nM; for `CCCCCCCC(=O)N(C)[C@@H]1C[C@H]2O[C@@](C)([C@@H]1OC)n1c3ccccc3c3c4c(c5c6ccccc6n2c5c31)C(=O)NC4=O` [Compound 6] it is above 1000 nM.
On the same count and under the same terms, the figure for `CO[C@@H]1[C@H](N(C)C(=O)CCC(=O)Nc2cc[nH]n2)C[C@H]2O[C@]1(C)n1c3ccccc3c3c4c(c5c6ccccc6n2c5c31)C(=O)NC4=O` [Compound 18] is 32.4 nM; for `CO[C@@H]1[C@H](N(C)C(=O)CCCC(=O)O)C[C@H]2O[C@]1(C)n1c3ccccc3c3c4c(c5c6ccccc6n2c5c31)C(=O)NC4=O` [Compound 13] it is 39.1 nM; for `CCC(=O)N(C)[C@@H]1C[C@H]2O[C@@](C)([C@@H]1OC)n1c3ccccc3c3c4c(c5c6ccccc6n2c5c31)C(=O)NC4=O` [Compound 1] it is 41 nM.
The same measure, in the same setting: under `CO[C@@H]1[C@H](N(C)C(=O)/C=C/c2ccccc2)C[C@H]2O[C@]1(C)n1c3ccccc3c3c4c(c5c6ccccc6n2c5c31)C(=O)NC4=O` [Compound 11] stands above 1000 nM.
For `CCCCCC(=O)N(C)[C@@H]1C[C@H]2O[C@@](C)([C@@H]1OC)n1c3ccccc3c3c4c(c5c6ccccc6n2c5c31)C(=O)NC4=O` [Compound 4], the IC50 at PIM-1 kinase (setting [1]) was above 1000 nM.
On the same count and under the same terms, the figure for `CCCC(=O)N(C)[C@@H]1C[C@H]2O[C@@](C)([C@@H]1OC)n1c3ccccc3c3c4c(c5c6ccccc6n2c5c31)C(=O)NC4=O` [Compound 2] is 83 nM; for `CO[C@@H]1[C@H](N(C)C(=O)C2CC2)C[C@H]2O[C@]1(C)n1c3ccccc3c3c4c(c5c6ccccc6n2c5c31)C(=O)NC4=O` [Compound 7] it is 445 nM.
Same read-out and setting: under `CO[C@@H]1[C@H](N(C)C(=O)c2ccc3c(c2)OCO3)C[C@H]2O[C@]1(C)n1c3ccccc3c3c4c(c5c6ccccc6n2c5c31)C(=O)NC4=O` [Compound 9] stands above 1000 nM; under `CO[C@@H]1[C@H](N(C)C(=O)CCC(=O)O)C[C@H]2O[C@]1(C)n1c3ccccc3c3c4c(c5c6ccccc6n2c5c31)C(=O)NC4=O` [Compound 12], 42.9 nM; under `CCCCC(=O)N(C)[C@@H]1C[C@H]2O[C@@](C)([C@@H]1OC)n1c3ccccc3c3c4c(c5c6ccccc6n2c5c31)C(=O)NC4=O` [Compound 3], above 1000 nM.
The same measure, in the same setting: the figure for `CO[C@@H]1[C@H](N(C)C(=O)CCCCCCC(=O)O)C[C@H]2O[C@]1(C)n1c3ccccc3c3c4c(c5c6ccccc6n2c5c31)C(=O)NC4=O` [Compound 16] is 65.9 nM.
Consider `CN[C@@H]1C[C@H]2O[C@@](C)([C@@H]1OC)n1c3ccccc3c3c4c(c5c6ccccc6n2c5c31)C(=O)NC4=O` [Compound 7OSTA, 7-carbonylstaurosporine], for which the IC50 is 5.4 nM at PIM-1 kinase; 0.4 nM on TRKA; 15.3 nM against FLT3; 1.4 nM at PKCδ; 2.4 nM against TRKB; 2.3 nM on PKCε. Moreover, the IC50 at PKCη was 2.1 nM; against PAK4, 37 nM; against PLK1, 308 nM; against ROCK2, 35.9 nM; against IKKβ, above 1000 nM.
Take `CO[C@@H]1[C@H](N(C)C(=O)C=C(C)C)C[C@H]2O[C@]1(C)n1c3ccccc3c3c4c(c5c6ccccc6n2c5c31)C(=O)NC4=O` [Compound 10]: on PIM-1 kinase (setting [1]), the IC50 worked out at 81.4 nM.
Same read-out and setting: under `CO[C@@H]1[C@H](N(C)C(=O)CSCC(=O)O)C[C@H]2O[C@]1(C)n1c3ccccc3c3c4c(c5c6ccccc6n2c5c31)C(=O)NC4=O` [Compound 14] stands 53.8 nM; under `CO[C@@H]1[C@H](N(C)C(=O)c2cccs2)C[C@H]2O[C@]1(C)n1c3ccccc3c3c4c(c5c6ccccc6n2c5c31)C(=O)NC4=O` [Compound 8], 52.4 nM.
